Counter-ions that a name gives are not always drawn.
System: MCH58 fibroblasts
Assay: Mass spectrometry-based metabolite profiling
Type: cell-based, human
Method: Metabolite profiling was performed on MCH58 fibroblasts following treatment with 50 μM meclizine or vehicle control for six hours, using methods similar to those previously described, see […] et al., Mol Syst Biol 4:214 (2008). […] For assessment of media metabolites, 500 μl of spent media or baseline media (prior to addition to cells) were sampled from the culture dish and immediately added to 500 μl of pre-cooled (-80° C.) methanol extraction solution (80% methanol, 20% H2O) to allow for rapid quenching of metabolism and extraction of metabolites. After 20 minutes at 4° C., samples were centrifuged at 14,000 g for 10 minutes. 50 μl of the supernatant was collected, re-diluted 1:20 with methanol extraction solution, and 100 μl of the final solution evaporated under nitrogen. Samples were reconstituted in 60 μl of HPLC-grade water and metabolite levels determined, as described below. For assessment of intracellular metabolites, media was aspirated from the above tissue culture plates and cells gently washed with 4 mL of PBS, to ensure complete removal of residual media metabolites. The PBS was removed and cellular metabolism quenched with immediate addition of 1 mL of pre-cooled (-80° C.) methanol extraction solution (80% methanol, 20% H2O). Cells were scraped, collected in extraction solution, vortexed and the samples centrifuged as described above for preparation of media samples. 100 μl of the supernatant was collected, re-diluted 1:1 with methanol extraction solution, and 100 μl of the final solution evaporated under nitrogen. Samples were reconstituted in 60 μl of HPLC-grade water and metabolites assessed. Six biological replicates were assessed for each group. Analyses of endogenous metabolites were performed using a liquid chromatography tandem mass spectrometry (LC-MS) system composed of a 4000 QTRAP triple quadrupole mass spectrometer (Applied Biosystems/SCIEX) coupled to three Agilent 1100 binary HPLC pumps (Agilent Technologies) and an HTS PAL autosampler (LEAP Technologies) equipped with three injection ports and a column selector valve. Three multiplexed chromatographic methods were configured for the analyses of each sample: LC method 1 used a Luna Phenyl-Hexyl column (Phenomenex) eluted with a linear gradient of water/acetonitrile/acetic acid (initial proportions 100/0/0.001, final proportions 10/90/0.001); […] LC method 3 used a Synergi Polar-RP column (Phenomenex) with reversed phase, gradient elution using 5% acetonitrile/5 mM ammonium acetate (mobile phase A) and 95% acetonitrile/5 mM ammonium acetate (mobile phase B). MS data were acquired using multiple reaction monitoring (MRM) in both the positive (LC method 1) and negative (LC methods 2 and 3) ion modes. During the development of this method, authentic reference compounds were used to determine LC retention times and to tune MRM transitions. Metabolite quantification was performed by integrating peak areas for specific MRM transitions using MultiQuant software (version 1.1; Applied Biosystems/SCIEX) and all integrated peaks were manually reviewed for quality. Extraction and quantification procedures were optimized prior to assessment of samples in this study to ensure measured intracellular and media metabolites were within the linear range of detection. Confirmation of the phosphoethanolamine peak was performed using an exogenous phosphoethanolamine standard (Sigma P0503).

[1] = intracellular, 50 μM, 6 h, over DMSO

Cc1cccc(CN2CCN(C(c3ccccc3)c3ccc(Cl)cc3)CC2)c1 (racemic) [Meclizine, meclizine hydrochloride]
Fold Change P1_M0003_2′-deoxycytidine [1]: 1.13
Fold Change P1_M0007_Acetylcholine_p2_Met-146 [1]: 1.06
Fold Change P1_M0008_Alanine [1]: 1.40
Fold Change P1_M0009_Allantoin [1]: 0.91
Fold Change P1_M0012_Arginine [1]: 1.01
Fold Change P1_M0013_Argininosuccinate [1]: 1.08
Fold Change P1_M0014_Asparagine [1]: 2.43
Fold Change P1_M0015_Aspartate [1]: 1.25
Fold Change P1_M0016_Betaine [1]: 1.08
Fold Change P1_M0018_Carnosine [1]: 1.00
Fold Change P1_M0019_Choline [1]: 0.90
Fold Change P1_M0022_Creatine [1]: 1.47
Fold Change P1_M0023_Creatinine [1]: 1.03
Fold Change P1_M0026_Cysteine [1]: 1.38
Fold Change P1_M0027_Cytidine [1]: 1.28
Fold Change P1_M0030_DimethylGlycine [1]: 0.98
Fold Change P1_M0034_GlutamicAcid_p2 [1]: 1.16
Fold Change P1_M0035_Glutamine [1]: 1.05
Fold Change P1_M0038_Histidine [1]: 1.07
Fold Change P1_M0039_Homocysteine [1]: 0.95
Fold Change P1_M0040_Homoserine [1]: 1.14
Fold Change P1_M0041_Hydroxyproline [1]: 1.17
Fold Change P1_M0042/M0044_Ile/Leu [1]: 0.91
Fold Change P1_M0045_Lysine [1]: 1.08
Fold Change P1_M0046_Metanephrine_p2 [1]: 0.87
Fold Change P1_M0047_Methionine [1]: 1.06
Fold Change P1_M0050_Niacinamide [1]: 1.08
Fold Change P1_M0052_Ornithine [1]: 1.01
Fold Change P1_M0053_Phenylalanine [1]: 1.09
Fold Change P1_M0054_Phosphoethanolamine [1]: 38.21
Fold Change P1_M0055_Proline [1]: 1.28
Fold Change P1_M0056_Pyridoxine [1]: 1.15
Fold Change P1_M0058_Serine [1]: 1.11
Fold Change P1_M0062_Taurine [1]: 1.59
Fold Change P1_M0063_Threonine [1]: 1.14
Fold Change P1_M0066_Tryptophan [1]: 1.13
Fold Change P1_M0067_Tyrosine [1]: 1.18
Fold Change P1_M0068/M0037_Valine/GuanidinoaceticAcid [1]: 0.94
Fold Change P1_M0070_Xanthosine [1]: 1.21
Fold Change P1_M0142_Thymidine [1]: 0.97
Fold Change P1_M0200_L-NMMA [1]: 0.59
Fold Change P1_M0201/M0202_ADMA/SDMA [1]: 0.99
Fold Change P1_M0204_Glycerol [1]: 0.94
Fold Change P1_NM001-M68_Valine-d8 [1]: 1.01
Fold Change P3_M0077_Acetoacetate [1]: 1.07
Fold Change P3_M0081_ADP_p2 [1]: 1.43
Fold Change P3_M0082_AMP [1]: 1.31
Fold Change P3_M0100_FolicAcid [1]: 0.63
Fold Change P3_M0102/M0103/M0196_F16DiP/F26DiP/G16DiP_D79_p2 [1]: 1.32
Fold Change P3_M0104-M0107_F1P/F6P/G1P/G6P_D97 [1]: 0.97
Fold Change P3_M0109-M0110_Glucose/Galactose [1]: 0.94
Fold Change P3_M0111_GlutathioneOxidized [1]: 1.20
Fold Change P3_M0112_GlutathioneReduced [1]: 1.74
Fold Change P3_M0113_Glyceraldehyde [1]: 1.00
Fold Change P3_M0114_Glycerol-3-P [1]: 1.21
Fold Change P3_M0121_Hypoxanthine [1]: 1.17
Fold Change P3_M0126_LacticAcid [1]: 0.99
Fold Change P3_M0127_Lactose [1]: 0.42
Fold Change P3_M0129_NAD [1]: 1.11
Fold Change P3_M0130_NADP [1]: 1.24
Fold Change P3_M0139_Sorbitol [1]: 0.92
Fold Change P3_M0140_Sucrose [1]: 1.18
Fold Change P3_M0145/M0146_UDP-Glucose/UDP-Galactose_p2 [1]: 1.33
Fold Change P3_M0147_UDP-GlucuronicAcid [1]: 1.45
Fold Change P3_M0149_Uracil [1]: 0.90
Fold Change P3_M0150_Uridine [1]: 0.88
Fold Change P3_M0152_Xanthine [1]: 0.85
Fold Change P3_M0154_Methylmalonate [1]: 0.86
Fold Change P3_M0164/M0175_FumaricAcid/MaleicAcid [1]: 1.07
Fold Change P3_M0195_3-PhosphoglycericAcid [1]: 1.45
Fold Change P3_NM002-M109_Glucose-13C6-d7 [1]: 1.02
Fold Change P3_NM003-M161_CitricAcid-d4 [1]: 0.97
Fold Change P4_CAP193_Met-165 [1]: 0.90
Fold Change P4_M0083_ATP_D159 [1]: 1.27
Fold Change P4_M0088_CMP [1]: 1.27
Fold Change P4_M0089_CTP [1]: 1.32
Fold Change P4_M0090_Cystathionine [1]: 1.53
Fold Change P4_M0091_DCDP [1]: 1.09
Fold Change P4_M0092_DCMP [1]: 1.17
Fold Change P4_M0093_DCTP [1]: 1.02
Fold Change P4_M0097_DUMP [1]: 0.88
Fold Change P4_M0100_FolicAcid [1]: 0.84
Fold Change P4_M0102/M0103/M0196_F16DiP/F26DiP/G16DiP_D79_p1 [1]: 1.14
Fold Change P4_M0102/M0103/M0196_F16DiP/F26DiP/G16DiP_D241 [1]: 1.07
Fold Change P4_M0108_GDP_p1 [1]: 1.38
Fold Change P4_M0116_GTP [1]: 1.24
Fold Change P4_M0121_Hypoxanthine [1]: 0.76
Fold Change P4_M0123_Inosine_p2 [1]: 1.18
Fold Change P4_M0126_LacticAcid [1]: 0.96
Fold Change P4_M0137/M0138_Ribose-5-P/Ribulose-5-P_D97 [1]: 1.07
Fold Change P4_M0140_Sucrose [1]: 1.10
Fold Change P4_M0144_UDP [1]: 1.21
Fold Change P4_M0148_UMP_p1 [1]: 0.83
Fold Change P4_M0151_UTP [1]: 1.09
Fold Change P4_M0157/M0156_Alpha-Keto-Glutarate/AdipicAcid [1]: 1.06
Fold Change P4_M0158_AscorbicAcid [1]: 0.96
Fold Change P4_M0159_CDP [1]: 1.52
Fold Change P4_M0161/M0172_CitricAcid/IsocitricAcid [1]: 0.66
Fold Change P4_M0162_Citrulline [1]: 0.87
Fold Change P4_M0163_DHAP [1]: 0.98
Fold Change P4_M0164/M0175_FumaricAcid/MaleicAcid [1]: 0.94
Fold Change P4_M0165_GeranylPyrophosphate [1]: 1.18
Fold Change P4_M0166_Glucuronate [1]: 0.77
Fold Change P4_M0167_Glycerate-2-P_p1_Met-185 [1]: 1.09
Fold Change P4_M0168_GlycochenodeoxycholicAcid [1]: 0.83
Fold Change P4_M0169_GlycocholicAcid [1]: 0.68
Fold Change P4_M0170_HippuricAcid [1]: 0.86
Fold Change P4_M0173_Kynurenine [1]: 0.96
Fold Change P4_M0176_MalicAcid [1]: 0.96
Fold Change P4_M0180_OH-PhenylPyruvate [1]: 0.86
Fold Change P4_M0183_Oxaloacetate [1]: 0.92
Fold Change P4_M0184_PantothenicAcid [1]: 1.29
Fold Change P4_M0185_Pyridoxal-5-phosphate_p1 [1]: 1.01
Fold Change P4_M0187_SuccinicAcid [1]: 0.83
Fold Change P4_M0188_TaurochenodeoxycholicAcid [1]: 0.76
Fold Change P4_M0190_UricAcid [1]: 0.87
Fold Change P4_M0191_Xanthosine-5′-monophosphate [1]: 1.75
Fold Change P4_M0198_AconiticAcid(CAP203)_D129 [1]: 0.55
Fold Change P4_M0205_PhosphoTyrosine [1]: 1.23
Fold Change P4_M0206_Acetyl-CoA_P404 [1]: 1.22
Fold Change P4_M0207_Malonyl-CoA_p1 [1]: 1.16
Fold Change P4_M0210_Pyruvate [1]: 1.08
Fold Change P4_NM002-M109_Glucose-13C6-d7 [1]: 1.15
Fold Change P4_NM003-M161_CitricAcid-d4_p1 [1]: 1.02
increase of intracellular phosphoethanolamine (six hours after treatment): ~35 fold

— US9399032B2, “Methods and compositions for treating degenerative and ischemic disorders” (The General Hospital Corporation, priority 2009, dated 2016)
